Experimental findings from patent US20130287763A1, “COMBINATION THERAPY FOR TREATING CANCER COMPRISING AN IGF-1R INHIBITOR AND AN AKT INHIBITOR” (MERCK SHARP & DOHME CORP., priority 2010, published 2013) are described below.

“Also recorded” adds a separate entry of the source.

Experiment [1] has as its system SW837 (KRASG12C) xenograft tumors. The experiment is described as follows: SW837 xenograft growth assessment. The experiment is classed as in vivo, mice. The settings on record: compared to the vehicle treated group (FIG. 5). The procedure: (§1) A suspension of human SKCO1 and SW837 cells (5×10^6) and HT29 (3×10^6) in Matrigel (Cat. #356231, BD Biosciences; 1:1 v/v) were injected subcutaneously into the right flank of 4-6 week old SCID Hairless Outbred (SHO), NOD SCID, or CD-1 nu/nu (Jackson Laboratories) mice, respectively. When tumors reached a size of ˜300 mm3 (Length*Width*Width*0.5), mice were randomized into treatment groups. […] Animals were weighed and tumor volumes were determined by calipering 2 times per week during the study and at termination. Tumor weight was measured and recorded at termination. On day 28 animals were sacrificed by CO2 asphyxiation. […] At time of sacrifice tumors pieces were collected for western blot analysis (snap frozen in liquid nitrogen) and for immunohistochemistry (10% neutral buffered formalin).

The subject of experiment [2] is SKCO1 (CRC), HCC70 (breast cancer), H1793 (NSCLC) cells. Description: Phospho-RTK arrays, cell lines from different cancer types. It counts as cell-based, human. The following applies: cell type-dependent. The procedure:
All CRC and NSCLC cell lines were obtained from ATCC and maintained in 10% fetal bovine serum, FBS (Hyclone) containing media (DMEM or RPMI; Invitrogen Inc) supplemented with pen-strep (Invitrogen) at 37° C. according to the instructions from ATCC. About 2 million cells were cultured in 10 cm plates and protein lysates were prepared from a sub-confluent culture. 500 ug of protein lysate were incubated with RTK Arrays (R&D bioscience; cat# ARY001) and developed as detailed in the manual. The arrays were probed with HRP-conjugated P-Tyr antibody and then incubated with Super-Signal chemiluminescence substrate (Pierce) and blots were then exposed to a Kodak Biomax Light Film.

Experiment [3] relates to HT-29 cells. The experiment is described as follows: Western blot of HT-29 cells treated with increasing doses of MK-2206. The experiment is classed as cell-based, human. The following applies: MK-2206 0.041-1.11 um, western blot (FIG. 1A). The procedure:
All CRC and NSCLC cell lines were obtained from ATCC and maintained in 10% fetal bovine serum, FBS (Hyclone) containing media (DMEM or RPMI; Invitrogen Inc) supplemented with pen-strep (Invitrogen) at 37° C. according to the instructions from ATCC. Total protein lysates from cells (˜0.3 million) cultured in 6 well plates were generated by removing the media, rinsing once with PBS and lysing in NP-40 buffer (1% NP-40, 20 MM Tris-HCL (pH8.0), 137 mM NaCl, 10% glycerol, 2 mM EDTA, Mini Complete protease inhibitor, HALT phosphatase Inhibitor cocktail). Samples were western blotted with indicated total or phosphor-specific antibodies followed by a secondary antibody (Cell Signaling Technology, CST) and then incubated with SuperSignal chemiluminescence substrate (Pierce). The blots were then exposed to a Kodak Biomax Light Film. The antibodies against ERK, p-ERK (Thr202/Tyr204), AKT and p-AKT (Ser473), IGF1R13, S6K & P-S6K (T389), IRS1 & P-IRS1 (S302) and actin were obtained from CST. Total IGF1R antibody was obtained from Santa Cruz and GAPDH was obtained from Chemicon.
On the technique in general: A western blot detects proteins with antibodies after separation by electrophoresis.

The subject of a further experiment is IGF-1R signaling pathway. The experiment is described as follows: Western blot analysis of IGF-1R/PI3K pathway activity in xenograft tumor samples. It counts as in vivo, mice. The following applies: 24 hrs after MK-0646 or 6 hrs after MK-2206 (FIG. 6). As to the method:
Total protein lysates from cells (˜0.3 million) cultured in 6 well plates were generated by removing the media, rinsing once with PBS and lysing in NP-40 buffer (1% NP-40, 20 MM Tris-HCL (pH8.0), 137 mM NaCl, 10% glycerol, 2 mM EDTA, Mini Complete protease inhibitor, HALT phosphatase Inhibitor cocktail). Samples were western blotted with indicated total or phosphor-specific antibodies followed by a secondary antibody (Cell Signaling Technology, CST) and then incubated with SuperSignal chemiluminescence substrate (Pierce). The blots were then exposed to a Kodak Biomax Light Film. The antibodies against ERK, p-ERK (Thr202/Tyr204), AKT and p-AKT (Ser473), IGF1R13, S6K & P-S6K (T389), IRS1 & P-IRS1 (S302) and actin were obtained from CST. Total IGF1R antibody was obtained from Santa Cruz and GAPDH was obtained from Chemicon. A suspension of human SKCO1 and SW837 cells (5×10^6) and HT29 (3×10^6) in Matrigel (Cat. #356231, BD Biosciences; 1:1 v/v) were injected subcutaneously into the right flank of 4-6 week old SCID Hairless Outbred (SHO), NOD SCID, or CD-1 nu/nu (Jackson Laboratories) mice, respectively. When tumors reached a size of ˜300 mm3 (Length*Width*Width*0.5), mice were randomized into treatment groups. […] Animals were weighed and tumor volumes were determined by calipering 2 times per week during the study and at termination. Tumor weight was measured and recorded at termination. […]

Experiment [4] deals with HT-29 cells. Description: Phospho-RTK arrays, HT-29 cells. The experiment is classed as cell-based, human. The procedure: (§2) All CRC and NSCLC cell lines were obtained from ATCC and maintained in 10% fetal bovine serum, FBS (Hyclone) containing media (DMEM or RPMI; Invitrogen Inc) supplemented with pen-strep (Invitrogen) at 37° C. according to the instructions from ATCC.
(§3) About 2 million cells were cultured in 10 cm plates and protein lysates were prepared from a sub-confluent culture. 500 ug of protein lysate were incubated with RTK Arrays (R&D bioscience; cat# ARY001) and developed as detailed in the manual. The arrays were probed with HRP-conjugated P-Tyr antibody and then incubated with Super-Signal chemiluminescence substrate (Pierce) and blots were then exposed to a Kodak Biomax Light Film.

In experiment [5] the test system is SKCO1 (KRASmut) xenograft tumors. Description: SKCO1 xenograft growth assessment. The experiment is classed as in vivo, mice. The settings on record: MK-0646 20 mg/kg i.p. once a week, MK-2206 140 mg/kg p.o. 3-times a week (FIG. 4). As to the method: as §1
The subject of the next experiment is SW-837 cells. The experiment is described as follows: Phospho-RTK arrays, SW-837 cells. The following applies: SW-837, 20.95 ug/ml MK-0646, 18 hrs (FIG. 3C). It counts as cell-based, human. The procedure:
as §2, §3

Setting [6] is: HT-29 cells, 1 uM MK-2206, 18 hrs, RTK arrays (FIG. 1B).

For the compound `NC1(c2ccc(-c3nc4ccn5c(=O)[nH]nc5c4cc3-c3ccccc3)cc2)CCC1` [MK-2206, 8-[4-(1-Aminocyclobutyl)phenyl]-9-phenyl[1,2,4]triazolo[3,4-f]-1,6-naphthyridin-3(2H)-one], in experiment [1], the tumor growth inhibition is recorded as about 30%. In experiment [2] (MK-2206, 18 hrs, RTK arrays (FIG. 2)), the “RTK activity (Her2)” value is recorded as “can decrease”. In experiment [2] (SKCO1 370 nM, HCC70 370 nM, H1793 1 uM MK-2206, 18 hrs (FIG. 2)), the “phosphorylation of RTKs (IGF-1R, IR, cMET, Her2, Her3, EphA2)” value is “increasing the phosphorylation of multiple RTKs”. Moreover, in the experiment with HT-29 cells [3], the “phosphorylation of AKT” value is on record as “diminished in a dose dependent manner” and the “total IGF-1R levels” value is given as “increase in a dose dependent manner”. The “IGF-1R signaling as measured by phosphorylation of IGF-1R” value with IGF-1R signaling pathway is “feedback activation of IGF-1R signaling”. For the same compound, in the experiment with HT-29 cells [4] (setting [6]), the “phosphorylation of IGF-1R” value is reported as “increase”; the “phosphorylation of IR and cMET” value is given as “observed”. In addition, the “tumor growth inhibition compared to vehicle treated control group” value in experiment [5] is “significant growth inhibition; also recorded: significantly inhibited tumor growth”.

Take “MK-0646: humanized antibody characterized as binding IGF-1R as well as the IR/IGF-1 hybrid receptor”: in experiment [1], the tumor growth inhibition is on record as about 10%. Besides, the “amount of active cMET and insulin receptor” value is “reduced” in the experiment on HT-29 cells [4] (HT-29, 20.95 ug/ml MK-0646, 18 hrs (FIG. 3A)) and “reduced” in the experiment on SW-837 cells. In addition, in experiment [5], the “tumor growth inhibition compared to vehicle treated control group” value was “significant growth inhibition; also recorded: significantly inhibited tumor growth”.
